Values quoted from earlier work as cited in patent US20070287755A1, “Orally administered compound for preventing neonatal hemorrhages, in a tardy form, caused by a K-vitamin dificiency” (priority 2006, published 2007).

Legend:
[1] = only if a suitable amount of biliar salts is present; lymphatic ways, proximal small intestine
[2] = test system: tardy hemorrhagic disease; conditions: repeated oral doses of 25 micrograms/day, breast-fed newborn babies
[3] = human person, after 72 hours

Compound | absorption through the gastrointestinal tract [1] | prophylaxis of tardy hemorrhagic disease [2] | presence in blood [3]
CC1=C(C/C=C(\C)CCC[C@H](C)CCC[C@H](C)CCCC(C)C)C(=O)c2ccccc2C1=O [Phytonadion] | nearly fully absorbed |  | 
K-vitamin |  | efficient for a full prophylaxis | practically absent in blood
